Earlier results on 1 compound are cited in patent publication US7390922B2, “Phenolic acid salts of gabapentin in liquid and/or semi-solid dosage forms and methods of use” (Kiel Laboratories, Inc., priority 2003, dated 2008).

Data set [1] concerns the target gb1a-gb^2 heterodimer and post-synaptic GABAB receptor (Homo sapiens, UniProt Q9UBS5).
The conditions of data set [2]: in water and across a wide range of pH.

gb1a-gb^2 heterodimer and post-synaptic GABAB receptor, sequence (Q9UBS5 15-961 limits assumed): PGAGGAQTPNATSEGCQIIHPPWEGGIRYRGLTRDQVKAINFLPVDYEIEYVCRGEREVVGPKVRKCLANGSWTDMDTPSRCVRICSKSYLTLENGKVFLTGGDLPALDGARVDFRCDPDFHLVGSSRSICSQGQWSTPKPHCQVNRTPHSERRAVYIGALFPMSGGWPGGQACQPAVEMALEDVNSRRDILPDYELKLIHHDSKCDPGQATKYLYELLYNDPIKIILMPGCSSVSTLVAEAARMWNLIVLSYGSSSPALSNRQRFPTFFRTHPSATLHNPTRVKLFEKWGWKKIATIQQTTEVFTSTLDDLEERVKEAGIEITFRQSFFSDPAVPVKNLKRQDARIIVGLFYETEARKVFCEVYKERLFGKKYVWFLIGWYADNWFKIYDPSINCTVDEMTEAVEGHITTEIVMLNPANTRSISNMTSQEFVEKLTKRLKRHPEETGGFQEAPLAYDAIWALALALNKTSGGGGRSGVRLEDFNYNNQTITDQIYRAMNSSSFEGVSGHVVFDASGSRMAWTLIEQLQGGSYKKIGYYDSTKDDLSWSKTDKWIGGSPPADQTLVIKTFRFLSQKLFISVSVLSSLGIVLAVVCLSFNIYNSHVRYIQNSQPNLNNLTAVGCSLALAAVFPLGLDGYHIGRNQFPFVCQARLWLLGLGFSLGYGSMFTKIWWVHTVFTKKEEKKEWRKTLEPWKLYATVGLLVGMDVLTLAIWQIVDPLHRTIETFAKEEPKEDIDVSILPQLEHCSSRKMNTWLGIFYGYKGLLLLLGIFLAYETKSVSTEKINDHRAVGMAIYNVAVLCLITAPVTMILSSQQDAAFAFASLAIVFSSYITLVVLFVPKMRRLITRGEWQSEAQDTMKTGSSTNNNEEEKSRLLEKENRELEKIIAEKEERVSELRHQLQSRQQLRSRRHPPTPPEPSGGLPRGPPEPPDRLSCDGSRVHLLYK
gb1a-gb^2 heterodimer and post-synaptic GABAB receptor, sequence (O75899 42-941 partner): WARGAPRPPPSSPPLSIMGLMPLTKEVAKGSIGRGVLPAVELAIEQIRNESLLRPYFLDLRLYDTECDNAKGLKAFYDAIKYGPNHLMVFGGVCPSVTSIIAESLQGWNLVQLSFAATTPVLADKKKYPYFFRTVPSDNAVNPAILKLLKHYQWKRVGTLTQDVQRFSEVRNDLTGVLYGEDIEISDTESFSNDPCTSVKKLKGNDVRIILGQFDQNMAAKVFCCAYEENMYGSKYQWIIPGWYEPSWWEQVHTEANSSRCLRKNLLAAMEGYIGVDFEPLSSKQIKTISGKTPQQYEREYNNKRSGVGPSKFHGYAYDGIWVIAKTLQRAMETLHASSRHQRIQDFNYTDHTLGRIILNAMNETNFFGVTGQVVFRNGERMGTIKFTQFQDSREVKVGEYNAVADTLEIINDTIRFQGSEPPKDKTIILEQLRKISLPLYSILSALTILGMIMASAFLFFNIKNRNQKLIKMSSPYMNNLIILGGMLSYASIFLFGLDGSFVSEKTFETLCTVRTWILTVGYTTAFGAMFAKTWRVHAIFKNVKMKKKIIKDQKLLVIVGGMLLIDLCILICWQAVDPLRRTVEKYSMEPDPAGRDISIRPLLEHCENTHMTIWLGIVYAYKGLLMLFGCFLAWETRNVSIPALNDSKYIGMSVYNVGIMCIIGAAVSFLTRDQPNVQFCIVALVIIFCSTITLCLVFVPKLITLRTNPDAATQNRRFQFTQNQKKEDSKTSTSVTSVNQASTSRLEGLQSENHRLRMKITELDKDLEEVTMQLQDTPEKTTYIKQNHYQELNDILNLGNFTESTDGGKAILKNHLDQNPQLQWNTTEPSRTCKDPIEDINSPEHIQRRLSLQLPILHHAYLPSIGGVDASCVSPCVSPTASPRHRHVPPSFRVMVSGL

For `NCC1(CC(=O)O)CCCCC1` [gabapentin, l-(amino methyl) cyclohexaneacetic acid], the receptor activity entry in data set [1] is recorded as “selective agonist”. In addition, the “time of peak plasma gabapentin concentrations” value (adults, post-dose) was 2 to 3 h. Also, under “after administration of 300 mg, dose-dependent”, the absolute bioavailability result is listed as “approximately 60%”. In addition, where the note is “in vivo”, the metabolism entry is recorded as “is not metabolized”, the plasma protein binding result is recorded as “does not bind to plasma proteins” and the route of elimination entry is recorded as “eliminated via glomerular filtration”. Besides, for the setting “unlike GABA”, the blood-brain barrier passage result was “able to cross the blood-brain barrier”. For the same compound, the solubility entry in data set [2] is on record as “freely soluble in water”.
